Test results taken from patent KR20100022620A, “2-(2-옥소-2-페닐에틸설파닐)-벤즈이미다졸-4-카르복스아미드 유도체 또는 이의 약학적으로 허용가능한 염, 이의 제조방법 및 이를 유효성분으로 함유하는 폴리(adp-리보스)폴리머라제-1(parp-1)의 과활성에 의해 유발되는 질환의 예방 또는 치료용 약학적 조성물” (한국화학연구원, priority 2008, dated 2010).

Experiments:
PARP-1 = biological target: T1, PARP-1 (Homo sapiens, UniProt P09874); assay: PARP-1 inhibition (Universal Colorimetric PARP Assay-Histones kit); type: biochemical; details: for IC50: IC50 determined only for drugs inhibiting 50% or more at 10 μM, 0.01 ~10 μM, 0.5U PARP, room temperature, 1 h; for PARP-1 inhibitory effect (in words): judged from Table 2
T1 construct: purchased TREVIGEN 4671-096-K

ischemic heart (허혈심장) = assay: Antiischemic (cardioprotective) effect in in vivo ischemic heart model of the rat; details: 1 mg/kg; for reduction of myocardial infarction rate / cardioprotective effect (in words): rat, versus negative control 58.6%; for myocardial infarction rate (IS/AAR, infarct size/area at risk): via femoral vein, male rat, 45 min occlusion, 90 min reperfusion, negative control 58.6%

T1 sequence (P09874 whole entry): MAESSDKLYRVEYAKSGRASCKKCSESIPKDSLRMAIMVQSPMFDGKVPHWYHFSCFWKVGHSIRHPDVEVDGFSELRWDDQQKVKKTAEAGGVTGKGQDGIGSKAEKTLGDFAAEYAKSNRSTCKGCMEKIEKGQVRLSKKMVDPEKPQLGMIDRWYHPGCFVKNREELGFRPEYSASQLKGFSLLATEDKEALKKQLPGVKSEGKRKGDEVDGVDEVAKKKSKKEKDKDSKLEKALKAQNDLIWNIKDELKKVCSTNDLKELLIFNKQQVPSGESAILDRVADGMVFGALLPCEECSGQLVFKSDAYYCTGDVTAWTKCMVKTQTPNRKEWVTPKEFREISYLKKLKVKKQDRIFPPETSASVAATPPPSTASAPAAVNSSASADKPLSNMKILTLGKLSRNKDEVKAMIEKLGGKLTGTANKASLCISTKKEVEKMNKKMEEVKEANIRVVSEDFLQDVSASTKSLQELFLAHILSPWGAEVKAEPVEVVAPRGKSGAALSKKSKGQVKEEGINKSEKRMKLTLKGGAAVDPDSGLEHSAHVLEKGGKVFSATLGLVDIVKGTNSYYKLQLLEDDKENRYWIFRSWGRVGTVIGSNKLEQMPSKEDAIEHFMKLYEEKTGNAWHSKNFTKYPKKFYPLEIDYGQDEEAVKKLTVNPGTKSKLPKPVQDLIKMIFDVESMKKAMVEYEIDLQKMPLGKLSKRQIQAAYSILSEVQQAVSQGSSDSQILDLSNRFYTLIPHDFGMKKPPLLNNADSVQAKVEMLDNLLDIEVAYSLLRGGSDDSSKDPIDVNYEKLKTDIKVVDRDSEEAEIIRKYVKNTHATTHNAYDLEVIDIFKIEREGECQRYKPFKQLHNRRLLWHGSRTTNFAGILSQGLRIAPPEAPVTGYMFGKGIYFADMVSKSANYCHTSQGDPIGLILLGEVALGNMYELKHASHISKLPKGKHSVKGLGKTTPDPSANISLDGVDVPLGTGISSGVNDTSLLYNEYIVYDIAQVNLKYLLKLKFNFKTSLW

SMILES | IC50 (PARP-1) | PARP-1 inhibitory effect (in words) (PARP-1) | reduction of myocardial infarction rate / cardioprotective effect (in words) (ischemic heart (허혈심장)) | myocardial infarction rate (IS/AAR, infarct size/area at risk) (ischemic heart (허혈심장))
NC(=O)c1ccc(C(=O)CSc2nc3c(C(N)=O)cccc3[nH]2)cc1 [실시예 19, 2-[2-(4-카르바모일페닐)-2-옥소-에틸설파닐]-1H-벤즈이미다졸-4-카르복스아미드] | 0.38 µM | 매우 뛰어난 PARP-1 억제효과 | 우수한 심장보호효과 | 36.3%
NC(=O)c1cccc2[nH]c(SCC(=O)c3cccc(Br)c3)nc12 [실시예 11, 2-[2-(3-브로모페닐)-2-옥소-에틸설파닐]-1H-벤즈이미다졸-4-카르복스아미드] | 2.23 µM |  |  | 
CN(C)c1ccc(C(=O)CSc2nc3c(C(N)=O)cccc3[nH]2)cc1 [실시예 5, 2-[2-(4-디메틸아미노페닐)-2-옥소-에틸설파닐]-1H-벤즈이미다졸-4-카르복스아미드] | > 10 µM |  |  | 
NC(=O)c1cccc2[nH]c(SCC(=O)c3ccc(Br)cc3)nc12 [실시예 2, 2-[2-(4-브로모페닐)-2-옥소-에틸설파닐]-1H-벤즈이미다졸-4-카르복스아미드] | 0.71 µM | 매우 뛰어난 PARP-1 억제효과 | 음성대조군보다 유의성 있는 감소 | 44.1%
NC(=O)c1cccc(C(=O)CSc2nc3c(C(N)=O)cccc3[nH]2)c1 [실시예 18, 2-[2-(3-카르바모일페닐)-2-옥소-에틸설파닐]-1H-벤즈이미다졸-4-카르복스아미드] | 0.43 µM | 매우 뛰어난 PARP-1 억제효과 | 우수한 심장보호효과 | 37.5%
COc1ccc(C(=O)CSc2nc3c(C(N)=O)cccc3[nH]2)cc1 [실시예 14, 2-[2-(4-메톡시페닐)-2-옥소-에틸설파닐]-1H-벤즈이미다졸-4-카르복스아미드] | 1.94 µM |  |  | 
NC(=O)c1cccc2[nH]c(SCC(=O)c3ccc(N4CCCC4)cc3)nc12 [실시예 6, 2-[2-(4-피롤리딘-1-일페닐)-2-옥소-에틸설파닐]-1H-벤즈이미다졸-4-카르복스아미드] | > 10 µM |  |  | 
NC(=O)c1cccc2[nH]c(SCC(=O)c3ccc(C=O)cc3)nc12 [실시예 21, 2-[2-(4-포르밀페닐)-2-옥소-에틸설파닐]-1H-벤즈이미다졸-4-카르복스아미드] | 0.75 µM | 매우 뛰어난 PARP-1 억제효과 |  | 
NC(=O)c1cccc2[nH]c(SCC(=O)c3ccc(N4CCCCC4)cc3)nc12 [실시예 17, 2-[2-(3-피페리딘-1-일페닐)-2-옥소-에틸설파닐]-1H-벤즈이미다졸-4-카르복스아미드] | 1.4 µM |  |  | 
NC(=O)c1cccc2[nH]c(SCC(=O)c3ccc(Cl)cc3Cl)nc12 [실시예 9, 2-[2-(2,4-디클로로페닐)-2-옥소-에틸설파닐]-1H-벤즈이미다졸-4-카르복스아미드] | 4.75 µM |  |  | 
NC(=O)c1cccc2[nH]c(SCC(=O)c3cccc(N4CCCC4)c3)nc12 [실시예 16, 2-[2-(3-피롤리딘-1-일페닐)-2-옥소-에틸설파닐]-1H-벤즈이미다졸-4-카르복스아미드] | 1.2 µM |  |  | 
COc1cccc(C(=O)CSc2nc3c(C(N)=O)cccc3[nH]2)c1 [실시예 7, 2-[2-(3-메톡시페닐)-2-옥소-에틸설파닐]-1H-벤즈이미다졸-4-카르복스아미드] | 2.26 µM |  |  | 
NC(=O)c1cccc2[nH]c(SCC(=O)c3ccc(F)cc3)nc12 [실시예 4, 2-[2-(4-플루오로페닐)-2-옥소-에틸설파닐]-1H-벤즈이미다졸-4-카르복스아미드] | 0.94 µM | 매우 뛰어난 PARP-1 억제효과 |  | 

The next lines start with results.

IC50 (PARP-1) | PARP-1 inhibitory effect (in words) (PARP-1) | SMILES | reduction of myocardial infarction rate / cardioprotective effect (in words) (ischemic heart (허혈심장)) | myocardial infarction rate (IS/AAR, infarct size/area at risk) (ischemic heart (허혈심장))
> 10 µM |  | NC(=O)c1cccc2[nH]c(SCC(=O)c3ccccc3)nc12 [실시예 20, 2-[2-페닐-2-옥소-에틸설파닐]-1H-벤즈이미다졸-4-카르복스아미드] |  | 
1.22 µM |  | NC(=O)c1cccc2[nH]c(SCC(=O)c3ccccc3F)nc12 [실시예 10, 2-[2-(2-플루오로페닐)-2-옥소-에틸설파닐]-1H-벤즈이미다졸-4-카르복스아미드] |  | 
1.33 µM |  | Cc1ccc(C)c(C(=O)CSc2nc3c(C(N)=O)cccc3[nH]2)c1 [실시예 3, 2-[2-(2,5-디메틸페닐)-2-옥소-에틸설파닐]-1H-벤즈이미다졸-4-카르복스아미드] |  | 
0.96 µM | 매우 뛰어난 PARP-1 억제효과 | NC(=O)c1cccc2[nH]c(SCC(=O)c3cccc(F)c3)nc12 [실시예 8, 2-[2-(3-플루오로페닐)-2-옥소-에틸설파닐]-1H-벤즈이미다졸-4-카르복스아미드] |  | 
1.92 µM |  | Cc1cccc(C(=O)CSc2nc3c(C(N)=O)cccc3[nH]2)c1 [실시예 15, 2-[2-(3-메틸페닐)-2-옥소-에틸설파닐]-1H-벤즈이미다졸-4-카르복스아미드] |  | 
1.05 µM |  | NC(=O)c1cccc2[nH]c(SCC(=O)c3cc(Cl)ccc3Cl)nc12 [실시예 1, 2-[2-(2,5-디클로로페닐)-2-옥소-에틸설파닐]-1H-벤즈이미다졸-4-카르복스아미드] |  | 
0.96 µM | 매우 뛰어난 PARP-1 억제효과 | Cc1ccccc1C(=O)CSc1nc2c(C(N)=O)cccc2[nH]1 [실시예 12, 2-[2-(2-메틸페닐)-2-옥소-에틸설파닐]-1H-벤즈이미다졸-4-카르복스아미드] |  | 
1.12 µM |  | COc1ccccc1C(=O)CSc1nc2c(C(N)=O)cccc2[nH]1 [실시예 13, 2-[2-(2-메톡시페닐)-2-옥소-에틸설파닐]-1H-벤즈이미다졸-4-카르복스아미드] |  | 
